Tested on: adult patients with uncontrolled gout
Experiment: Serum uric acid (sUA) levels and sUA responder rate, open-label study of pegloticase with MTX (MIRROR OL)
Type: in vivo, human
Conditions: Month 6 sUA Responders
Protocol: The primary objective is to estimate the response rate during Month 6 (Weeks 20, 22, and 24), as measured by the sustained normalization of serum uric acid (SUA) to <6 mg/dL for at least 80% of the time during Month 6 in subjects receiving KXX with MTX.
The primary efficacy outcome endpoint is the sustained normalization of SUA to <6 mg/dL for at least 80% of the time during month 6 (weeks 20, 22, and 24) in subjects receiving KXX with MTX. […] Participants who achieve this endpoint were classified as “responders.” Serum uric acid (SUA) responders may also be defined as participants achieving and maintaining SUA <6 mg/dL for at least 80% of the time during Month 6 (Weeks 20, 22, and 24).
Blood samples may be collected prior to each pegloticase infusion for measurement of SUA levels using the Beckman Coulter AU System Uric Acid procedure. Participants were declared “non-responders” if there were SUA measures >6 mg/dL at 2 consecutive study visits beginning with the week 2 visit. […] This assumption and subsequent discontinuation of pegloticase was consistent with the protocol of large phase III randomized controlled trials and the product label. A formal stopping rule was 2 occasions of SUA levels of greater than 6 mg/dL.
Clinical Chemistry—Blood samples were collected prior to each pegloticase infusion for measurement of SUA levels (primary efficacy parameter) using the Beckman Coulter AU System Uric Acid procedure. In this procedure uric acid is converted to hydrogen peroxide. Hydrogen peroxide reacts with reagent to produce a chromophore which is read bichromatically at 660/800 nm. The amount of dye formed is proportional to the uric acid concentration in the sample.
Serum samples for measurement of SUA levels were collected at the Screening Visit, the Week −4 Visit (prior to the first dose of MTX), and the Week −2 Visit during the MTX Run-in Period; within 48 hours prior to each pegloticase infusion and after the end of each pegloticase infusion prior to discharge from the site during the Pegloticase+IMM Period; at the non-infusion Week 52/End of Study/Early Termination Visits and at the Post Treatment 3 and 6 Month Follow-up Visits. Additional serum samples for SUA levels were collected at optional non-infusion (Frequent Sampling) Visits at Weeks 1 and 7. […] Subjects with SUA level >6 mg/dL at 2 consecutive visits beginning at Week 2 visit discontinued treatment, completed the End of Pegloticase Infusion Visit procedures within 2 weeks and continued the subject visits according to the protocol (without treatment).
Efficacy analyses were performed using the modified intention-to-treat (mITT) population, defined as all enrolled subjects who received ≥1 dose of pegloticase. The proportion of Month 6 responders was summarized, along with a 95% confidence interval for the proportion. The proportion of Month 3 and overall (Months 3 and 6 combined) responders was analyzed similarly.
A subject was declared a non-responder if the subject had SUA level >6 mg/dL at 2 consecutive study visits beginning with the Week 2 Visit. In addition, a subject who withdraws from study treatment for any reason after the first dose of pegloticase in the KXX+MTX Period and prior to Month 6 (for the primary endpoint) or Month 3 (for the secondary endpoint) was considered a non-responder if SUA values were not collected at the planned time points.
Patients were administered oral MTX (15 mg/week) and folate (1 mg/day) 4 weeks prior to the first pegloticase infusion (Day 1) and throughout the pegloticase treatment period. Blood was drawn prior to each infusion to measure sUA level, monitor clinical parameters, and examine for ADA development. All patients followed typical IR prophylaxis protocols (fexofenadine one day before and the morning of each infusion and acetaminophen and IV corticosteroid the morning of each infusion).

With pegloticase the “Serum Uric Acid, Observed, Mean (SD)” value (Week 28-Pre-Infusion, n=8) was 0.30 (0.000) mg/dL, the “Serum Uric Acid, Observed, Median” value (Week 28-Pre-Infusion, n=8) was 0.30 mg/dL and the “sUA <6 mg/dL, n (%)” value (Week 28-Pre-Infusion, n=8) was 8 (100%). For the same substance, the “Serum Uric Acid, Change from Baseline, Mean (SD)” value (shortened to “Serum Uric Acid, Change … (SD)”) (Week 30-Pre-Infusion, n=8) was −9.11 (3.293) mg/dL, the “Serum Uric Acid, Change from Baseline, Median” value (Week 30-Pre-Infusion, n=8) was -8.95 mg/dL and the “Serum Uric Acid, Observed, Mean (SD)” value (Week 30-Pre-Infusion, n=8) was 0.30 (0.000) mg/dL. The “Serum Uric Acid, Observed, Median” value (Week 30-Pre-Infusion, n=8) was 0.30 mg/dL, the “sUA <6 mg/dL, n (%)” value (Week 30-Pre-Infusion, n=8) was 8 (100%) and the “Serum Uric Acid, Change … (SD)” value (Week 32-Post-Infusion, n=8) was −9.11 (3.293) mg/dL. The “Serum Uric Acid, Change from Baseline, Median” value (Week 32-Post-Infusion, n=8) was -8.95 mg/dL, the “Serum Uric Acid, Observed, Mean (SD)” value (Week 32-Post-Infusion, n=8) was 0.30 (0.000) mg/dL and the “Serum Uric Acid, Observed, Median” value (Week 32-Post-Infusion, n=8) was 0.30 mg/dL. The “sUA <6 mg/dL, n (%)” value (Week 32-Post-Infusion, n=8) was 8 (100%), the “Serum Uric Acid, Change … (SD)” value (Week 32-Pre-Infusion, n=10) was −8.99 (2.961) mg/dL and the “Serum Uric Acid, Change from Baseline, Median” value (Week 32-Pre-Infusion, n=10) was -8.95 mg/dL. For the same substance, the “Serum Uric Acid, Observed, Mean (SD)” value (Week 32-Pre-Infusion, n=10) was 0.30 (0.000) mg/dL, the “Serum Uric Acid, Observed, Median” value (Week 32-Pre-Infusion, n=10) was 0.30 mg/dL and the “sUA <6 mg/dL, n (%)” value (Week 32-Pre-Infusion, n=10) was 10 (100%). For the same substance, the “Serum Uric Acid, Change … (SD)” value (Week 34-Post-Infusion, n=8) was −9.11 (3.293) mg/dL, the “Serum Uric Acid, Change from Baseline, Median” value (Week 34-Post-Infusion, n=8) was -8.95 mg/dL and the “Serum Uric Acid, Observed, Mean (SD)” value (Week 34-Post-Infusion, n=8) was 0.30 (0.000) mg/dL. For the same substance, the “Serum Uric Acid, Observed, Median” value (Week 34-Post-Infusion, n=8) was 0.30 mg/dL, the “sUA <6 mg/dL, n (%)” value (Week 34-Post-Infusion, n=8) was 8 (100%) and the “Serum Uric Acid, Change … (SD)” value (Week 34-Pre-Infusion, n=10) was −8.47 (3.248) mg/dL. The “Serum Uric Acid, Change from Baseline, Median” value (Week 34-Pre-Infusion, n=10) was -7.95 mg/dL, the “Serum Uric Acid, Observed, Mean (SD)” value (Week 34-Pre-Infusion, n=10) was 0.82 (1.046) mg/dL and the “Serum Uric Acid, Observed, Median” value (Week 34-Pre-Infusion, n=10) was 0.30 mg/dL. The “sUA <6 mg/dL, n (%)” value (Week 34-Pre-Infusion, n=10) was 10 (100%), the “Serum Uric Acid, Change … (SD)” value (Week 36-Post-Infusion, n=6) was −9.38 (3.799) mg/dL and the “Serum Uric Acid, Change from Baseline, Median” value (Week 36-Post-Infusion, n=6) was -9.20 mg/dL. The “Serum Uric Acid, Observed, Mean (SD)” value (Week 36-Post-Infusion, n=6) was 0.30 (0.000) mg/dL, the “Serum Uric Acid, Observed, Median” value (Week 36-Post-Infusion, n=6) was 0.30 mg/dL and the “sUA <6 mg/dL, n (%)” value (Week 36-Post-Infusion, n=6) was 6 (100%). The “Serum Uric Acid, Change … (SD)” value (Week 36-Pre-Infusion, n=9) was −7.90 (4.094) mg/dL, the “Serum Uric Acid, Change from Baseline, Median” value (Week 36-Pre-Infusion, n=9) was -8.60 mg/dL and the “Serum Uric Acid, Observed, Mean (SD)” value (Week 36-Pre-Infusion, n=9) was 1.58 (2.425) mg/dL. For the same substance, the “Serum Uric Acid, Observed, Median” value (Week 36-Pre-Infusion, n=9) was 0.30 mg/dL, the “sUA <6 mg/dL, n (%)” value (Week 36-Pre-Infusion, n=9) was 8 ( 88.9%) and the “Serum Uric Acid, Change … (SD)” value (Week 38-Pre-Infusion, n=5) was −8.41 (5.229) mg/dL. The “Serum Uric Acid, Change from Baseline, Median” value (Week 38-Pre-Infusion, n=5) was -8.60 mg/dL, the “Serum Uric Acid, Observed, Mean (SD)” value (Week 38-Pre-Infusion, n=5) was 0.93 (1.583) mg/dL and the “Serum Uric Acid, Observed, Median” value (Week 38-Pre-Infusion, n=5) was 0.30 mg/dL. The “sUA <6 mg/dL, n (%)” value (Week 38-Pre-Infusion, n=5) was 5 (100%), the “Serum Uric Acid, Change … (SD)” value (Week 40-Pre-Infusion, n=3) was −11.30 (3.686) mg/dL and the “Serum Uric Acid, Change from Baseline, Median” value (Week 40-Pre-Infusion, n=3) was -9.80 mg/dL. For the same substance, the “Serum Uric Acid, Observed, Mean (SD)” value (Week 40-Pre-Infusion, n=3) was 0.30 (0.000) mg/dL, the “Serum Uric Acid, Observed, Median” value (Week 40-Pre-Infusion, n=3) was 0.30 mg/dL and the “sUA <6 mg/dL, n (%)” value (Week 40-Pre-Infusion, n=3) was 3 (100%). For the same substance, the “Serum Uric Acid, Change … (SD)” value (Week 42-Pre-Infusion, n=3) was −11.30 (3.686) mg/dL, the “Serum Uric Acid, Change from Baseline, Median” value (Week 42-Pre-Infusion, n=3) was -9.80 mg/dL and the “Serum Uric Acid, Observed, Mean (SD)” value (Week 42-Pre-Infusion, n=3) was 0.30 (0.000) mg/dL. For the same substance, the “Serum Uric Acid, Observed, Median” value (Week 42-Pre-Infusion, n=3) was 0.30 mg/dL, the “sUA <6 mg/dL, n (%)” value (Week 42-Pre-Infusion, n=3) was 3 (100%) and the “Serum Uric Acid, Change … (SD)” value (Week 44-Pre-Infusion, n=3) was −10.55 (4.625) mg/dL. For the same substance, the “Serum Uric Acid, Change from Baseline, Median” value (Week 44-Pre-Infusion, n=3) was -9.80 mg/dL, the “Serum Uric Acid, Observed, Mean (SD)” value (Week 44-Pre-Infusion, n=3) was 1.05 (1.305) mg/dL and the “Serum Uric Acid, Observed, Median” value (Week 44-Pre-Infusion, n=3) was 0.30 mg/dL. For the same substance, the “sUA <6 mg/dL, n (%)” value (Week 44-Pre-Infusion, n=3) was 3 (100%), the “Serum Uric Acid, Change … (SD)” value (Week 46-Pre-Infusion, n=2) was −12.65 (4.031) mg/dL and the “Serum Uric Acid, Change from Baseline, Median” value (Week 46-Pre-Infusion, n=2) was -12.65 mg/dL. The “Serum Uric Acid, Observed, Mean (SD)” value (Week 46-Pre-Infusion, n=2) was 0.30 (0.000) mg/dL, the “Serum Uric Acid, Observed, Median” value (Week 46-Pre-Infusion, n=2) was 0.30 mg/dL and the “sUA <6 mg/dL, n (%)” value (Week 46-Pre-Infusion, n=2) was 2 (100%).
